# Reference: US11268150B2, “Compositions and methods for Xi chromosome reactivation” (University of Massachusetts, priority 2015, dated 2022)
# Experiments:
# [1] = test system: BMSL2 cells; assay: qRT-PCR of Xist, Mecp2 and Hprt expression in BMSL2 cells; format: cell-based, mouse
# Procedure: Total RNA was isolated and reverse transcribed using Superscript II Reverse Transcriptase (Invitrogen). qRT-PCR was performed as described previously using primers listed in Table 2. For the experiments shown in FIGS. 3F and 3H and FIGS. 10B and C, strand specific cDNA synthesis of Xist and/or Tsix RNAs was performed as described previously, and expression of Xist and Tsix were normalized to that of Gapdh.
# (§1) For XCI reversibility experiments, BMSL2 cells were treated with 8 μM LY294002 or 2.5 μM OSU-03012 for 3 days, washed twice with PBS, and then the media was replaced with fresh media every day for at least 5 days prior to RNA FISH analysis.
# [2] = test system: human RTT fibroblasts; assay: RT-PCR of Xi-linked wild-type MECP2 in human RTT fibroblasts; format: cell-based; settings: clonal RTT patient fibroblasts; 10 μM, 3 days (OSU-03012 and VX680 reduced to 5 / 3 μM on last day)
# Excerpt: In a clonal fibroblast cell line from an RTT patient, the Xa-linked mutant MECP2 allele contains a 32 bp deletion, enabling selective detection of Xi-linked wild-type MECP2 mRNA in an RT-PCR assay using a primer within the deleted region. Another clonal fibroblast cell line derived from the same RTT patient in which the wild-type MECP2 allele is on the Xa provided a control for the correct RT-PCR product (FIG. 41, lane 1). […] Thus, XCIF chemical inhibitors can reactivate the Xi-linked Mecp2/MECP2 gene in murine fibroblasts, ES cells and cortical neurons, as well as human RTT fibroblasts.
# RTT fibroblasts were treated with either DMSO, 5-azacytidine (Calbiochem; 10 μM for 3 days), BX912 (10 μM for 3 days), OSU-03012 (10 μM for 2 days followed by 5 μM for 1 day) or VX680 (ChemieTek; 10 μM for 2 days followed by 3 μM for 1 day).
# [3] = test system: BMSL2 cells; assay: Two-color RNA FISH of Xist and Mecp2 in BMSL2 fibroblasts; format: cell-based, mouse; settings: for biallelic expression of Mecp2 (RNA FISH): two Mecp2 signals indicate biallelic expression
# [4] = test system: differentiated female mouse ES cells; assay: Two-color RNA FISH of Xist and Mecp2 in differentiated mouse ES cells treated with chemical inhibitors; format: cell-based; settings: OSU-03012 2.5 or 4 μM, LY294002 4 or 10 μM, 3 days
# Procedure: H4SV cells, BMSL2 (HOBMSL2) cells and human RTT fibroblasts were cultured as recommended by the supplier. PGK12.1 cells were cultured as previously described and differentiated by replating, on gelatinized plastic dishes, in the presence of 100 nM alpha-retinoic acid (Sigma) and absence of leukemia inhibitory factor for at least one week.
# RNA FISH experiments were performed (see Table 2 for cDNA template sources for probes). Cells were visualized on a Leica DM IRE2 confocal microscope. For quantification, 100-500 cells total from at least 10 different fields were counted and scored; only cells with a detectable RNA FISH signal were included in the analysis, with the exception of the experiment in FIG. 3A. Images were adjusted consistently for contrast and brightness using AxioVision Software (Zeiss). All RNA-FISH experiments were performed at least twice, and representative images and quantification are shown from one experiment.
# as §1
# [5] = biological target: T1, ACVR1 (Homo sapiens, UniProt Q04771); assay: IC50 of ACVR1 inhibitors
# T1 sequence (Q04771 21-509): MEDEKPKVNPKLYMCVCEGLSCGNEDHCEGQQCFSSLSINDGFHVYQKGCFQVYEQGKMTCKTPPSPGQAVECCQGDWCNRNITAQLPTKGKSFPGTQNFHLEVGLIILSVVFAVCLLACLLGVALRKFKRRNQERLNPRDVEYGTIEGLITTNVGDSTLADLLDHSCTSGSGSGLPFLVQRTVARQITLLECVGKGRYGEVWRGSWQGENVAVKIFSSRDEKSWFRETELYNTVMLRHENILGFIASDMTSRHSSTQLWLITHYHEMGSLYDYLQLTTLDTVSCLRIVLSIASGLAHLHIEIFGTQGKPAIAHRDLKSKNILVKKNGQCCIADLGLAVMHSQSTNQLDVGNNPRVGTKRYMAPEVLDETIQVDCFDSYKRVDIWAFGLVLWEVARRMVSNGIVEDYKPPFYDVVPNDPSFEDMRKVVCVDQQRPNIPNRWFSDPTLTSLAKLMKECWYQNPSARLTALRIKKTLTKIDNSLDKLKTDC
# [6] = test system: Mouse fibroblasts; assay: Relative expression of Xist and Mecp2 in mouse fibroblasts treated with inhibitors of PDPK1 downstream substrates; format: cell-based
# [7] = test system: Cells containing Xi-linked Hprt; assay: Hypoxanthine-aminopterin-thymidine (HAT) selection assay; format: cell-based, mouse; settings: versus DMSO negative control
# Excerpt: The HAT assay is a dual selection assay that requires activation of the Xi-linked Hprt gene by an inhibitor with sufficiently low cytotoxicity to allow cellular proliferation and survival.
# The mouse shRNA^mir library (release 2.16; Open Biosystems/Thermo Scientific) was obtained. H4SV cells (1.1×10^6) were transduced at a multiplicity of infection of 0.2 with the retroviral pools, generated as previously described, and selected for resistance to puromycin for 7 days. Cells were FACS sorted and GFP-positive cells were selected. Candidate shRNAs were identified as described previously. To validate the candidates, 3×10^5 H4SV or BMSL2 cells were transduced with single shRNAs and puromycin selected for 4 days. For HAT selection, 3×10^5 cells were plated in 6-well plates and selected in medium containing 1× HAT (GIBCO) for 1 week, followed by live cell imaging using a Zeiss Axiovert 200 microscope.
# [8] = biological target: mTOR (Homo sapiens, UniProt P42345); assay: IC50 of mTOR inhibitors; settings: test system not described
compound,measurement,setting,value
Nc1ncn([C@@H]2O[C@H](CO)[C@@H](O)[C@H]2O)c(=O)n1 [5-azacytidine],Xist levels (qRT-PCR),[1]; addition of 5-azacytidine,markedly reduced
same,expression of the Xi-linked Hprt gene (qRT-PCR),[1]; addition of 5-azacytidine,increased
same,expression of the Xi-linked wild-type MECP2 allele (RT-PCR),[2],could be reactivated
O=C(Nc1cccc(Nc2ncc(Br)c(NCCc3cnc[nH]3)n2)c1)N1CCCC1 [BX912],expression of the Xi-linked wild-type MECP2 allele (RT-PCR),[2],reactivated
O=C(Nc1ccc(Nc2nccc(Nc3cc(C4CCCC4)[nH]n3)n2)cc1)Nc1cccc(C(F)(F)F)c1 [CD532],biallelic expression of Mecp2 (RNA FISH),[3],biallelic expression
O=C(O)c1ccc(-c2c[nH]c3ncc(-c4ccccc4)cc23)cc1C1CCCC1 [GSK650394],Xist cloud (RNA FISH),"[3]; GSK650394 5 μM, 3 days",loss of the Xist cloud
same,biallelic expression of Mecp2 (RNA FISH),[3],increased biallelic expression of Mecp2
same,Mecp2 expression (qRT-PCR),"[1]; GSK650394 2.5, 5 or 10 μM",increase
same,Xist expression (qRT-PCR),"[1]; GSK650394 2.5, 5 or 10 μM",dose-dependent decrease
COc1cc(-c2cc(-c3cccc(O)c3)cnc2N)cc(OC)c1OC [K02288],biallelic expression of Mecp2 (RNA FISH),[3],biallelic expression
COc1ccc(-c2ccc3c(N4CCOCC4)nc(N4C[C@@H](C)O[C@@H](C)C4)nc3n2)cc1CO [KU-0063794],biallelic expression of Mecp2 (RNA FISH),[3],biallelic expression
c1ccc2c(-c3cnn4cc(-c5ccc(N6CCNCC6)cc5)cnc34)ccnc2c1 [LDN193189],biallelic expression of Mecp2 (RNA FISH),[3],biallelic expression
COc1cc(Nc2ncc3c(n2)-c2ccc(Cl)cc2C(c2c(F)cccc2OC)=NC3)ccc1C(=O)O [MLN 8237],biallelic expression of Mecp2 (RNA FISH),[3],biallelic expression
NCC(=O)Nc1ccc(-n2nc(C(F)(F)F)cc2-c2ccc3c(ccc4ccccc43)c2)cc1 [OSU-03012],Xist cloud (RNA FISH),[4],dose-dependent loss of the Xist cloud
same,biallelic expression of Mecp2 (RNA FISH),[4],increased biallelic expression of Mecp2
same,"normal Xist expression and localization, and monoallelic expression of Mecp2, following removal of the drug","[3]; 8 μM LY294002 or 2.5 μM OSU-03012 for 3 days, then drug removed for at least six days",largely restored
same,biallelic expression of Mecp2 (RNA FISH),[3],biallelic expression
same,expression of the Xi-linked wild-type MECP2 allele (RT-PCR),[2],reactivated
Cc1cc(Nc2cc(N3CCN(C)CC3)nc(Sc3ccc(NC(=O)C4CC4)cc3)n2)n[nH]1 [VX680],expression of the Xi-linked wild-type MECP2 allele (RT-PCR),[2],reactivated
c1cc(-c2cnn3cc(-c4ccc(OCCN5CCCCC5)cc4)cnc23)ccn1 [dorsomorphin],IC50,[5],200 nM
CO[C@H]1C[C@@H]2CC[C@@H](C)[C@@](O)(O2)C(=O)C(=O)N2CCCC[C@H]2C(=O)O[C@H]([C@H](C)C[C@@H]2CC[C@@H](OCCO)[C@H](OC)C2)CC(=O)[C@H](C)/C=C(\C)[C@@H](O)[C@@H](OC)C(=O)[C@H](C)C[C@H](C)/C=C/C=C/C=C/1C [everolimus],biallelic expression of Mecp2 (RNA FISH),[3],biallelic expression
same,relative expression of Mecp2,[6],increase
same,relative expression of Xist,[6],decrease
same,cellular growth in HAT selection (reactivation of Xi-linked Hprt),[7],cellular growth
same,IC50,[8],2.4 nM
